Where only a bound is given, the exact number is not on record here.

The target of assay [1] is T1, SMYD3 (Homo sapiens (Human), UniProt Q9H7B4). The experiment in a line: SMYD3 cell assay (Trimethyl-MEKK2 In-Cell Western in 293T/17 cells). In kind it is cell-based. The note with it: 293T/17 cells; read-out: SMYD3 Cell IC50 (μM)*. In a few lines: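 In-Cell Western ratio of trimethyl-Lys260 MEKK2 to anti-flag signal; percent inhibition from DMSO and maximum-inhibition controls, IC50 by non-linear regression, triplicates.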
T1 sequence (Q9H7B4 whole entry): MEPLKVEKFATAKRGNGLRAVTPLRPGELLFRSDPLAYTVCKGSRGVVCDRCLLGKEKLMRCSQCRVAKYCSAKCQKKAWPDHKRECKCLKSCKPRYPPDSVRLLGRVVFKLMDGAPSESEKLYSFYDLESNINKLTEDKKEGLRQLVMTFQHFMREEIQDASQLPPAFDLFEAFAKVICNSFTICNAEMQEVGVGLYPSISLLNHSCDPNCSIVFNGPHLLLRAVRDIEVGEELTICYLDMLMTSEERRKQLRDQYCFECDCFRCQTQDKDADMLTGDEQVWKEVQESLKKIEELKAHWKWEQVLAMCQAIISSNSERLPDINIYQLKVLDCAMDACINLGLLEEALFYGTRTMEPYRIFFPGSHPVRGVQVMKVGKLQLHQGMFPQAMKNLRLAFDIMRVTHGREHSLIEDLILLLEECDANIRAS

For assay [2], the target named is T1, SMYD3. The experiment in a line: SMYD3 biochemical assay (SPA, 3H-SAM methylation of MEKK2 protein substrate). The note with it: read-out: SMYD3 Biochem IC50 (μM)*. In a few lines: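 Native full-length human SMYD3 (E. coli-expressed, tags removed) was preincubated with compound for 30 min at room temperature in 25 mM Tris-Cl pH 8.0, 1 mM TCEP, 0.005% BSG, 0.005% Tween 20. Reaction was started with 3H-SAM plus GST-MEKK2, quenched with 100 uM unlabeled SAM, and read by SPA scintillation counting.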

As a reminder, the IC50 is the midpoint of a concentration-inhibition curve. As to `C[C@H]1C[C@H](NC(=O)c2cc(C3CC3)on2)CCN1S(=O)(=O)c1cn(C)cn1` [compound 291, 5-cyclopropyl-N-((2S,4R)-2-methyl-1-((1-methyl-1H-imidazol-4-yl)sulfonyl)piperidin-4-yl)isoxazole-3-carboxamide], the IC50 at SMYD3 [1] was above 40 µM; at SMYD3 [2] it was above 10 µM.

On to `C[C@@H]1C[C@H](NC(=O)c2cc(C3CC3)on2)CCN1S(=O)(=O)c1ccccn1` [compound 293, 5-cyclopropyl-N-((2R,4R)-2-methyl-1-(pyridin-2-ylsulfonyl)piperidin-4-yl)isoxazole-3-carboxamide], for which the half-inhibitory concentration (IC50) on SMYD3 [1] amounted to 7.19 µM; on SMYD3 [2] it was 4.84 µM.

As for `C[C@@H]1C[C@H](NC(=O)c2cc(C3CC3)on2)CCN1S(=O)(=O)c1cn(C)cn1` [compound 294, 5-cyclopropyl-N-((2R,4R)-2-methyl-1-((1-methyl-1H-imidazol-4-yl)sulfonyl)piperidin-4-yl)isoxazole-3-carboxamide], the IC50 on SMYD3 [1] is above 40 µM; on SMYD3 [2], above 10 µM.

`C[C@@H]1C[C@H](NC(=O)c2cc(C3CC3)on2)CCN1S(=O)(=O)CCc1ccccc1` [compound 295, 5-cyclopropyl-N-((2R,4R)-2-methyl-1-(phenethylsulfonyl)piperidin-4-yl)isoxazole-3-carboxamide]: the IC50 was above 40 µM on SMYD3 [1] and above 10 µM at SMYD3 [2].

In the case of `N[C@H]1CC[C@H](C(=O)N2CC[C@@H](NC(=O)c3cc(C4CC4)on3)C[C@H]2Cc2ccccc2)CC1` [compound 309, N-((2R,4R)-1-((1r,4R)-4-aminocyclohexane-1-carbonyl)-2-benzylpiperidin-4-yl)-5-cyclopropylisoxazole-3-carboxamide], the IC50 at SMYD3 [1] was determined as 16.8 µM; on SMYD3 [2], 1.18 µM.

Regarding `N[C@H]1CC[C@H](C(=O)N2CC[C@H](NC(=O)c3cc(C4CC4)on3)C[C@@H]2Cc2ccccc2)CC1` [compound 310, N-((2S,4S)-1-((1r,4S)-4-aminocyclohexane-1-carbonyl)-2-benzylpiperidin-4-yl)-5-cyclopropylisoxazole-3-carboxamide], the figures for the IC50 at SMYD3 [1] and at SMYD3 [2] were 8.1 µM and 0.733 µM, respectively.

For the molecule `C[C@@H]1C[C@H](NC(=O)c2cc(C3CC3)on2)CCN1C(=O)CC(CN)c1ccccc1` (stereo partly drawn) [compound 314, N-((2R,4R)-1-(4-amino-3-phenylbutanoyl)-2-methylpiperidin-4-yl)-5-cyclopropylisoxazole-3-carboxamide], the values for the IC50 on SMYD3 [1] and at SMYD3 [2] were above 40 µM and 4.73 µM, respectively.

`C[C@H]1C[C@@H](NC(=O)c2cc(C3CC3)on2)CCN1S(=O)(=O)N(C)C` [compound 315, 5-cyclopropyl-N-((2S,4S)-1-(N,N-dimethylsulfamoyl)-2-methylpiperidin-4-yl)isoxazole-3-carboxamide]: the IC50 on SMYD3 [1] stood at 4.84 µM; at SMYD3 [2], 1.33 µM.

For the molecule `CCCCS(=O)(=O)N1CC[C@H](NC(=O)c2cc(C3CC3)on2)C[C@@H]1C` [compound 316, N-((2S,4S)-1-(butylsulfonyl)-2-methylpiperidin-4-yl)-5-cyclopropylisoxazole-3-carboxamide], the IC50 stood at 0.782 µM on SMYD3 [1] and 0.237 µM at SMYD3 [2].

Take `C[C@H]1C[C@@H](NC(=O)c2cc(C3CC3)on2)CCN1S(=O)(=O)c1cccnc1` [compound 317, 5-cyclopropyl-N-((2S,4S)-2-methyl-1-(pyridin-3-ylsulfonyl)piperidin-4-yl)isoxazole-3-carboxamide]: the IC50 on SMYD3 [1] was 4.11 µM; at SMYD3 [2] it was 0.686 µM.

On to `C[C@H]1C[C@@H](NC(=O)c2cc(C3CC3)on2)CCN1S(=O)(=O)Cc1cccnc1` [compound 319, 5-cyclopropyl-N-((2S,4S)-2-methyl-1-((pyridin-3-ylmethyl)sulfonyl)piperidin-4-yl)isoxazole-3-carboxamide], for which the IC50 was found to be 4.53 µM at SMYD3 [1] and 1.43 µM at SMYD3 [2].

In the case of `C[C@@H]1C[C@H](NC(=O)c2cc(C3CC3)on2)CCN1S(=O)(=O)N(C)C` [compound 328, 5-cyclopropyl-N-((2R,4R)-1-(N,N-dimethylsulfamoyl)-2-methylpiperidin-4-yl)isoxazole-3-carboxamide], the IC50 is 15.2 µM on SMYD3 [1] and 6.91 µM at SMYD3 [2].

In the case of `C[C@@H]1C[C@H](NC(=O)c2cc(C3CC3)on2)CCN1S(=O)(=O)Cc1cccnc1` [compound 329, 5-cyclopropyl-N-((2R,4R)-2-methyl-1-((pyridin-3-ylmethyl)sulfonyl)piperidin-4-yl)isoxazole-3-carboxamide], the IC50 at SMYD3 [1] was 20 µM; on SMYD3 [2], 6.42 µM.

Consider `CC(=O)Nc1ccc(S(=O)(=O)N2CC[C@@H](NC(=O)c3cc(C4CC4)on3)C[C@H]2C)cc1` [compound 330, N-((2R,4R)-1-((4-acetamidophenyl)sulfonyl)-2-methylpiperidin-4-yl)-5-cyclopropylisoxazole-3-carboxamide], for which the IC50 at SMYD3 [1] was 29.3 µM; on SMYD3 [2], above 10 µM.

As for `CCOC(=O)C1CN(S(=O)(=O)CCCN)CCC1NC(=O)c1cc(C2CC2)on1` (centres unmarked) [compound 331, ethyl 1-((3-aminopropyl)sulfonyl)-4-(5-cyclopropylisoxazole-3-carboxamido)piperidine-3-carboxylate], the IC50 came to 2.31 µM at SMYD3 [1] and 0.147 µM at SMYD3 [2].

As to `NCCCC(=O)N1CC[C@@H](NC(=O)c2cc(C3CC3)on2)C[C@H]1Cc1ccccc1` [compound 333, N-((2R,4R)-1-(4-aminobutanoyl)-2-benzylpiperidin-4-yl)-5-cyclopropylisoxazole-3-carboxamide], the half-maximal inhibitory concentration (IC50) is above 40 µM at SMYD3 [1] and above 10 µM on SMYD3 [2].

`NCCCC(=O)N1CC[C@@H](NC(=O)c2cc(C3CC3)on2)C[C@@H]1Cc1ccccc1` [compound 334, N-((2S,4R)-1-(4-aminobutanoyl)-2-benzylpiperidin-4-yl)-5-cyclopropylisoxazole-3-carboxamide]: the IC50 at SMYD3 [1] was 33 µM; at SMYD3 [2], 1.9 µM.

As to `NCCCC(=O)N1CC[C@H](NC(=O)c2cc(C3CC3)on2)C[C@H]1Cc1ccccc1` [compound 335, N-((2R,4S)-1-(4-aminobutanoyl)-2-benzylpiperidin-4-yl)-5-cyclopropylisoxazole-3-carboxamide], the IC50 at SMYD3 [1] was 19.6 µM; at SMYD3 [2], 1.12 µM.

Regarding `NCCCC(=O)N1CC[C@H](NC(=O)c2cc(C3CC3)on2)C[C@@H]1Cc1ccccc1` [compound 336, N-((2S,4S)-1-(4-aminobutanoyl)-2-benzylpiperidin-4-yl)-5-cyclopropylisoxazole-3-carboxamide], the IC50 on SMYD3 [1] came out at 1.62 µM; on SMYD3 [2], 0.0541 µM.

As for `C[C@H]1C[C@@H](NC(=O)c2cc(C3CC3)on2)CCN1C(=O)CC(C)(C)CN` [compound 337, N-((2S,4S)-1-(4-amino-3,3-dimethylbutanoyl)-2-methylpiperidin-4-yl)-5-cyclopropylisoxazole-3-carboxamide], the IC50 at SMYD3 [1] turned out to be 13 µM; on SMYD3 [2] it was 0.961 µM.

Regarding `C[C@H]1C[C@@H](NC(=O)c2cc(C3CC3)on2)CCN1C(=O)c1ccc2[nH]cnc2c1` [compound 340, N-((2S,4S)-1-(1H-benzo[d]imidazole-5-carbonyl)-2-methylpiperidin-4-yl)-5-cyclopropylisoxazole-3-carboxamide], the IC50 on SMYD3 [1] is above 40 µM; at SMYD3 [2], above 10 µM.

As to `C[C@@H]1C[C@H](NC(=O)c2cc(C3CC3)on2)CCN1C(=O)c1ccc2[nH]cnc2c1` [compound 341, N-((2R,4R)-1-(1H-benzo[d]imidazole-5-carbonyl)-2-methylpiperidin-4-yl)-5-cyclopropylisoxazole-3-carboxamide], the IC50 stood at 6.01 µM on SMYD3 [1] and 1 µM at SMYD3 [2].

Turning to `O=C(N[C@@H]1CCN(C(=O)CC2CCNCC2)[C@H](Cc2ccccc2)C1)c1cc(C2CC2)on1` [compound 349, N-((2R,4R)-2-benzyl-1-(2-(piperidin-4-yl)acetyl)piperidin-4-yl)-5-cyclopropylisoxazole-3-carboxamide], the IC50 on SMYD3 [1] is above 40 µM; at SMYD3 [2], 2.27 µM.

With `C[C@@H]1C[C@H](NC(=O)c2cc(C3CC3)on2)CCN1S(=O)(=O)c1ccccc1` [compound 351, 5-cyclopropyl-N-((2R,4R)-2-methyl-1-(phenylsulfonyl)piperidin-4-yl)isoxazole-3-carboxamide], the IC50 on SMYD3 [1] is 7.83 µM; on SMYD3 [2] it was 3.09 µM.

For the molecule `C[C@H]1C[C@@H](NC(=O)c2cc(C3CC3)on2)CCN1S(=O)(=O)c1ccccc1` [compound 352, 5-cyclopropyl-N-((2S,4S)-2-methyl-1-(phenylsulfonyl)piperidin-4-yl)isoxazole-3-carboxamide], the figures for the 50% inhibitory concentration (IC50) at SMYD3 [1] and on SMYD3 [2] were 0.996 µM and 0.152 µM, respectively.

With `C[C@@H]1C[C@H](NC(=O)c2cc(C3CC3)on2)CCN1S(=O)(=O)c1cccc(C#N)c1` [compound 354, N-((2R,4R)-1-((3-cyanophenyl)sulfonyl)-2-methylpiperidin-4-yl)-5-cyclopropylisoxazole-3-carboxamide], the results for the IC50 at SMYD3 [1] and on SMYD3 [2] were 5.65 µM and 1.14 µM, respectively.

On to `C[C@H](C(=O)N1CC[C@H](NC(=O)c2cc(C3CC3)on2)C[C@@H]1C)C1CCNCC1` [compound 360, 5-cyclopropyl-N-((2S,4S)-2-methyl-1-((S)-2-(piperidin-4-yl)propanoyl)piperidin-4-yl)isoxazole-3-carboxamide], for which the IC50 stood at 8.28 µM on SMYD3 [1] and 0.792 µM at SMYD3 [2].

On to `C[C@@H](C(=O)N1CC[C@H](NC(=O)c2cc(C3CC3)on2)C[C@@H]1C)C1CCNCC1` [compound 361, 5-cyclopropyl-N-((2S,4S)-2-methyl-1-((R)-2-(piperidin-4-yl)propanoyl)piperidin-4-yl)isoxazole-3-carboxamide], for which the IC50 on SMYD3 [1] is 13.6 µM; on SMYD3 [2], 1.36 µM.
